Reference: article PMC9127068 (ChemMedChem, 2022)

Molecular target: T1, 5-HT1A receptor (5-HT1AR) (Homo sapiens, UniProt P08908)
T1 sequence (P08908 1-422): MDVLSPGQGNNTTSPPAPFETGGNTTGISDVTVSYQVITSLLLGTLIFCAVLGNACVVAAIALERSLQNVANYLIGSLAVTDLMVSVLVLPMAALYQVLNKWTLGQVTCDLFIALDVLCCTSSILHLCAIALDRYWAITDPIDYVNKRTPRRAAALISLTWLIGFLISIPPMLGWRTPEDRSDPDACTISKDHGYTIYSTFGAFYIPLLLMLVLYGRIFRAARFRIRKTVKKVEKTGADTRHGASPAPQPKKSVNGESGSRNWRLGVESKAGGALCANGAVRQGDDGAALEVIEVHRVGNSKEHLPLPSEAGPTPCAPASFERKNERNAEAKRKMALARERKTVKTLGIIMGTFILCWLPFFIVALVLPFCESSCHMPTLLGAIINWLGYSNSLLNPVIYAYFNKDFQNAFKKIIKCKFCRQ
Experiment: radioligand displacement of [3H]-8-OH-DPAT
Type: binding

Row | Structure (SMILES) | Ki [nM]
1 | CCCN(CCCCCCNc1ccc([N+](=O)[O-])c2nonc12)C1CCc2cccc(O)c2C1 (centres unmarked) [5b] | 10
2 | CCCN(CCCCCCNS(=O)(=O)c1cccc2c(N(C)C)cccc12)C1CCc2cccc(O)c2C1 (centres unmarked) [5a] | 1.8
